Reference: ChEMBL document CHEMBL1159198, “Identification of magnolol and honokiol as anxiolytic agents in extracts of saiboku-to, an oriental herbal medicine” (1998)
Calls of active or inactive are those of the source. The rule behind the calls is not given here.

Legend:
Mus musculus [1] = experiment: Anxiolytic activity in ddY mouse assessed as time spent in open-sided arms at 0.49 mg/kg, po administered once daily for 7 days by elevated plus-maze test; assay type: functional, organism-based; design: dose 0.49 mg/kg
Mus musculus [2] = experiment: Anxiolytic activity in ddY mouse assessed as time spent in open-sided arms at 1 mg/kg, po administered once daily for 1 day by elevated plus-maze test; assay type: functional
Mus musculus [3] = experiment: Anxiolytic activity in ddY mouse assessed as time spent in open-sided arms at 0.19 mg/kg, po administered once daily for 5 days by elevated plus-maze test; assay type: functional
Mus musculus [4] = experiment: Anxiolytic activity in ddY mouse assessed as time spent in open-sided arms at 0.19 mg/kg, po administered once daily for 1 day by elevated plus-maze test; assay type: functional
Mus musculus [5] = experiment: Anxiolytic activity in ddY mouse assessed as time spent in open-sided arms at 0.19 mg/kg, po administered once daily for 3 days by elevated plus-maze test; assay type: functional
Mus musculus [6] = experiment: Anxiolytic activity in ddY mouse assessed as time spent in open-sided arms at 0.19 mg/kg, po administered once daily for 14 days by elevated plus-maze test; assay type: functional
Mus musculus [7] = experiment: Anxiolytic activity in ddY mouse assessed as time spent in open-sided arms at 0.19 mg/kg, po administered once daily for 7 days by elevated plus-maze test; assay type: functional

Structure (SMILES) | Activity (Mus musculus [1]) | Time (Mus musculus [2]) [s] | Time (Mus musculus [3]) [s] | Time (Mus musculus [4]) [s] | Time (Mus musculus [5]) [s] | Time (Mus musculus [6]) [s] | Time (Mus musculus [7]) [s]
C=CCc1ccc(O)c(-c2cc(CC=C)ccc2O)c1 | Active |  |  |  |  |  | 
CN1C(=O)CN=C(c2ccccc2)c2cc(Cl)ccc21 [DIAZEPAM] |  | 22.1 |  |  |  |  | 
C=CCc1ccc(O)c(-c2ccc(O)c(CC=C)c2)c1 [HONOKIOL] | Active |  | 9.1 | 3.7 | 4 | 12.3 | 10.9
